In patent US20060270614A1, “Use of chalcones for the treatment of viral disorders” (priority 2005, published 2006):
Read-outs that look alike come from different tables or passages of the source.

Test system: HSV-1
Test: HSV-1 assay: CPE inhibition in Vero cells, MTS dye uptake
Format: cell-based, herpes simplex virus-1
Settings: read-out: IC50 (inhibitory concentration at which the compound provides 50% CPE reduction)
Method: In vitro evaluation of anti-viral activity can be determined by plaque reduction as reported in J. Nat. Prod. (1990) 53, 340-344; or as described in Example 1. To pre-grown Vero cells (ATCC CCL-81 is added a virus suspension (ATCC VR-260) mixed with complete medium containing various concentrations of the test compound and the mixture is incubated until maximum cytopathic effect (CPE) is observed in the untreated virus control culture. The CPE inhibition is determined by adding a dye (MTS, (3-[4,5-dimethylthiazol-2-yl-5]-[3-carboxymethyoxyphenyl]-2-[4-sulfophenyl]-2H tetrazolium)) uptake procedure (Promega's Cell Titer Aqueous One Solution). This method measures cell viability and is based on the reduction of the tetrazolium-based MTS by mitochondrial enzymes of viable host cells to MTS formazan. The purple color of the MTS formazan is then measured spectrophotometrically. The optical density (OD) value of each culture is a function of the amount of formazan produced which is proportional to the number of viable cells.
Vero cells (ATCC CCL-81) are pregrown in 96-well tissue culture plates using Dulbecco's Modified Eagle's Medium (DMEM) supplemented with 10% heat-inactivated fetal bovine serum (FBS), L-Glutamine, penicillin, and streptomycin.
To each of the replicate cell cultures is added 50 μL of the test article solution and 50 μL of virus suspension (ATCC VR-260). The multiplicity of infection used is about 0.05 plaque-forming unit (PFU) per cell. Cell controls containing medium alone, virus-infected controls containing medium and virus, drug cytotoxicity controls containing medium and each drug concentration, reagent controls containing culture medium only (no cells), and the test article colorimetric controls containing the test article and medium (no cells) are run simultaneously with the test samples. The plates are incubated at 37° C. in a humidified atmosphere containing 5% CO2 until maximum CPE (cytopathic effect) is observed in the untreated virus control cultures (Day 5).
CPE inhibition is determined by a dye (MTS) uptake procedure (Promega's Cell Titer Aqueous One Solution). This method measures cell viability and is based on the reduction of the tetrazolium-based MTS by mitochondrial enzymes of viable host cells to MTS formazan. MTS (10 μl) is added to each of the plate wells. The plates are incubated at 37° C. for 4 hours. The purple color of the MTS formazan is then measured spectrophotometrically at 490/650 nm. The optical density (OD) value of each culture is a function of the amount of formazan produced which is proportional to the number of viable cells.
The percent of CPE (cytopathic effect) reduction of the virus-infected wells (antiviral efficacy) and the percent cell viability of uninfected drug control wells (cytotoxicity) are calculated. […]

[1] = Human alphaherpesvirus 1, 120 h, Vero cells (ATCC CCL-81), virus ATCC VR-260, about 0.05 PFU per cell, Day 5, MTS

IC50 [1] [µM]	SMILES	IC50 (Human alphaherpesvirus 1, Vero, 120 h) [µM]
11.1	COc1ccc(/C=C/C(=O)c2ccc(O)cc2O)cc1 [2′,4′-Dihydroxy-4-methoxychalcone]	–
26.6	O=C(/C=C/c1ccc(O)c(O)c1)c1ccc(O)cc1O [2′,3,4,4′-Tetrahydroxychalcone]	–
–	COc1ccc(/C=C/C(=O)c2ccc(O)cc2O)cc1OC [2′,4′-Dihydroxy-3,4-dimethoxychalcone]	8.36
> 100	O=C1/C(=C/c2ccc(O)c(O)c2)Oc2cc(O)ccc21 [(Z)-2-(3,4-Dihydroxybenzylidene)-6-hydroxybenzofuran-3(2H)-one, reference compound]	–
